Experimental data: patent US11634409B2, “Compounds for the treatment of BRAF-associated diseases and disorders” (Array BioPharma Inc., priority 2019, dated 2023)
Like-named read-outs stand apart in the source and are kept apart here.

Experiments:
P-gp (MDR1) [1] = biological target: T1, P-gp (MDR1) (Homo sapiens (Human), UniProt P08183); settings: pig, LLC-PK1, 2 h, 1 μM
Method: (§4) Both LLC-PK1 and MDR1 transfected LLC-PK1 cells were cultured and plated according to manufacturer's recommendations with the exception that the passage media contained only 2% fetal bovine serum to extend passage time out to seven days.
(§5) Both positive and negative controls were used to assess functionality of P-gp or BCRP efflux in the assays. […] Final organic concentration in the assay was 1%. All dosing solutions contained 10 μM lucifer yellow to monitor LLC-PK1 or MDCKII cell monolayer integrity.
(§6) For the apical to basolateral determination (A to B), 75 μL of the test article in transport buffer were added to the apical side of the individual transwells and 250 μL of basolateral media, without compound or lucifer yellow, were added to each well. For the basolateral to apical determination (B to A), 250 μL of test article in transport buffer were added to each well and 75 μL transport buffer, without compound or lucifer yellow, were added to each transwell. All tests were performed in triplicate, and each compound was tested for both apical to basolateral and basolateral to apical transport. The plates were incubated for 2 hours on a Lab-Line Instruments Titer Orbital Shaker (VWR, West Chester, Pa.) at 50 rpm and 37° C. with 5% CO2. All culture plates were removed from the incubator and 50 μL of media were removed from the apical and basolateral portion of each well and added to 150 μL of 1 μM labetalol in 2:1 acetonitrile (acetonitrile): H2O, v/v.
(§7) These values were accepted when found to be below 2% for apical to basolateral and 5% basolateral to apical flux across the MDR1-transfected LLC-PK1 or BCRP-transfected MDCKII cell monolayers. The plates were sealed and the contents of each well analyzed by LC-MS/MS. The compound concentrations were determined from the ratio of the peak areas of the compound to the internal standard (labetalol) in comparison to the dosing solution.
(§8) The LC-MS/MS system was comprised of an HTS-PAL autosampler (Leap Technologies, Carrboro, N.C.), an HP1200 HPLC (Agilent, Palo Alto, Calif.), and a MDS Sciex 4000 Q Trap system (Applied Biosystems, Foster City, Calif.). […] The total run time, including re-equilibration, for a single injection was 1.2 minutes. Mass spectrometric detection of the analytes was accomplished using the ion spray positive mode.
(§9) An efflux ratio is calculated from the mean apical to basolateral (A-B) Papp data and basolateral to apical (B-A) Papp data: Efflux ratio=Papp(B−A)/Papp(A−B)

BCRP [2] = biological target: T2, BCRP (Homo sapiens (Human), UniProt Q9UNQ0); settings: dog, 2 h, 1 μM
Method: (§10) MDR1 LLC-PK1 and BCRP MDCKII Permeability Assay
(§11) BCRP transfected MDCKII cells were cultured and plated according to manufacturer's recommendations. Assay conditions included with and without the BCRP-specific inhibitor, KO0143, at a concentration of 0.3 μM to ascertain the contribution of BCRP to the efflux value of the test compound.
as §5, §6, §7, §8, §9

[3] = tested on: LLC-PK1 or MDCKII cell monolayer
Method: as §10, §4, §11, §5, §6, §7, §8
(§12) where Cd, V, t and C0 are the detected concentration (μM), the volume on the dosing side (mL), the incubation time (s) and the initial dosing concentration (μM), respectively. The calculations for Papp were made for each replicate and then averaged.

[4] = biological target: full-length FLAG-tagged B-Raf(V600E) (Homo sapiens (Human), UniProt P15056, V600E); assay: BRAF V600E enzyme assay (TR-FRET competitive displacement); format: binding; settings: averaged IC50; 60 min, ambient temperature
full-length FLAG-tagged B-Raf(V600E), sequence (P15056 whole entry V600E): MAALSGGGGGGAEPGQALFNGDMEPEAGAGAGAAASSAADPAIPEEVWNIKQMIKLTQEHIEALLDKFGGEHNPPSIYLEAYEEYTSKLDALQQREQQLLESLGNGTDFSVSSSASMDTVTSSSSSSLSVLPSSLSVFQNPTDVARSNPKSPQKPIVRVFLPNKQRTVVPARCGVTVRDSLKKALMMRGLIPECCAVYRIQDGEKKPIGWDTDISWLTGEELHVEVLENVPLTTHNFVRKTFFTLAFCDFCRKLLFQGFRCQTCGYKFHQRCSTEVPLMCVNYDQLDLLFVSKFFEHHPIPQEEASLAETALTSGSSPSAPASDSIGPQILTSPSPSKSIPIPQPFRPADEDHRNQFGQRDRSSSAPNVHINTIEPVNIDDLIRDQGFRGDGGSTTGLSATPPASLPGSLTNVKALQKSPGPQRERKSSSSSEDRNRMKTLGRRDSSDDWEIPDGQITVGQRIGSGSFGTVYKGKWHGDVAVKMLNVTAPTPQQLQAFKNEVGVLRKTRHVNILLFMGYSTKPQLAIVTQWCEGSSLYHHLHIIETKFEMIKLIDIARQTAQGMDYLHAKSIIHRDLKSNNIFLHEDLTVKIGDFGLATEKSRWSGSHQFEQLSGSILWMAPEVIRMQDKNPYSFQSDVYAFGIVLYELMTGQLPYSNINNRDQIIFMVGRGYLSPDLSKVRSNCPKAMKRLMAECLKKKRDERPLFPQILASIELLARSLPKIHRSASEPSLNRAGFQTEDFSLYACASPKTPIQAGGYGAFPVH
Description: (§1) A competitive displacement assay was configured for B-Raf that monitors the amount of a fluorescently-tagged “tracer” bound to B-Raf via TR-FRET from an anti-tag Eu-labeled antibody also bound to B-Raf.
(§2) [formula] • where: • Xmax Average Uninhibited Controls • Xm Average Background
(§3) A 4-parameter logistic model was the fit to the POC data for each compound.

BCRP [5] = biological target: T2, BCRP; assay: BCRP efflux ratio in BCRP transfected MDCKII cells; settings: for BCRP efflux ratio: Papp(B−A)/Papp(A−B), BCRP transfected MDCKII cells, 1 μM; for efflux ratio at 2 h, 1 μM: dog
Method: as §10, §11, §5, §6, §7, §8, §9

P-gp (MDR1) [6] = biological target: T1, P-gp (MDR1); assay: MDR1 efflux ratio in MDR1 transfected LLC-PK1 cells; settings: for MDR1 efflux ratio: Papp(B−A)/Papp(A−B), MDR1 transfected LLC-PK1 cells, 1 μM; for efflux ratio at 2 h, 1 μM: pig, LLC-PK1
Method: as §4, §5, §6, §7, §8, §9

[7] = tested on: LLC-PK1 or MDCKII cell monolayer; assay: MDR1 LLC-PK1 and BCRP MDCKII permeability assay (Papp); settings: Papp; test article 1 μM, 2 hours, 37° C.
Method: as §10, §4, §11, §5, §6, §7, §8, §12

[8] = as above
Method: as §10, §4, §11, §5, §6, §7, §8, §12

[9] = PK (free brain-to-free plasma ratio) (mouse); format: in vivo; settings: male CD-1 mice, oral gavage 10 mg/kg, (B/P)*(Bfu/Pfu)
Method: PK (Free Brain-to-Free Plasma Ratio) (Mouse)
The ability of representative compounds to penetrate the BBB in mice was determined by evaluating the unbound brain-to-unbound plasma (also referred to as free brain-to-free plasma) concentration ratio in male CD-1 mice.
Brain samples were stored at −20±5° C. prior to analysis. Concentrations of test compound in mouse brain homogenate were determined by liquid chromatography tandem mass spectrometry (LC-MS/MS) following protein precipitation with acetonitrile. A 12-point calibration curve, ranging from 0.5 to 10,000 ng/mL, was prepared in duplicate. A solution of 400 μg/mL of test compound in dimethyl sulfoxide (DMSO) was serially diluted (3-fold) in 100% DMSO, and then 2.5 μL of each standard solution was added to 100 μL of naïve male CD-1 mice brain homogenate. To mimic the extraction in the standard curve, 2.5 μL of DMSO was added to all test samples. […]
Brain-to-plasma ratios were calculated using the concentration of compound measured in the brain divided by the concentration of compound measured in the plasma. […] Free brain-to-free plasma ratios were calculated by multiplying the brain-to-plasma ratio by the in vitro brain homogenate free fraction divided by the in vitro plasma free fraction using the following equation: (B/P)*(Bfu/Pfu).

GST-tagged B-Raf(V600K) = GST-tagged B-Raf(V600K) (Homo sapiens, UniProt P15056, V600K); assay: BRAF V600K enzyme assay (TR-FRET competitive displacement); format: binding; settings: averaged IC50; 60 min, ambient temperature
GST-tagged B-Raf(V600K), sequence (P15056 2-766 V600K limits assumed): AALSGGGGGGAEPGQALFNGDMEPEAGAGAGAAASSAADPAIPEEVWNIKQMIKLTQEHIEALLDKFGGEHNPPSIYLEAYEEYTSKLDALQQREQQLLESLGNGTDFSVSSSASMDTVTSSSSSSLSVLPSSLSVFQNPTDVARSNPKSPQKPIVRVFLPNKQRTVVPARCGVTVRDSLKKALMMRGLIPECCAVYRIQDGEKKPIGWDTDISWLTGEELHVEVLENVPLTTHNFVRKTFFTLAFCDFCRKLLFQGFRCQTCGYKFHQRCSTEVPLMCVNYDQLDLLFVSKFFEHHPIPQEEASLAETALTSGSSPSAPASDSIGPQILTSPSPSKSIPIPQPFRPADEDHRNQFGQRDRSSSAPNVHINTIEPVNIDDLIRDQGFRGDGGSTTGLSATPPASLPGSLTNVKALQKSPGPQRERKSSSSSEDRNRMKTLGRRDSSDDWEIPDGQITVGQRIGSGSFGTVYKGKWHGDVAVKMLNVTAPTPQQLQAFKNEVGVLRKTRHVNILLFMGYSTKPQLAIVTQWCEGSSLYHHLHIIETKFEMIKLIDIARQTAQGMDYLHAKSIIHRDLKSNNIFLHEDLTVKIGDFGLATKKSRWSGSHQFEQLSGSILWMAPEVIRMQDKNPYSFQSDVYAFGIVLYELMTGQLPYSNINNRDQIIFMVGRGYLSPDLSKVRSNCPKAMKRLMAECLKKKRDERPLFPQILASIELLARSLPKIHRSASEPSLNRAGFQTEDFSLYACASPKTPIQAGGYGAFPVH
Description: as §1, §2, §3

[10] = tested on: A375-luciferase intracranial tumor xenografts; assay: Intracranial A375-luciferase efficacy and survival mouse tumor model; format: in vivo, Female nu/nu NCr mice; settings: BID PO 60 consecutive days, FIG. 15
Method: Female nu/nu NCr mice from Envigo (Indianapolis, Ind.) were obtained at 5-6 weeks of age and housed in groups of 5. Following a one week minimum acclimation period, mice received orthotopic (i.c.) intracranial injections of 3.0×10^3 A375-luciferase tumor cells suspended in a volume of 10 μL 0.9% sterile Dulbecco's phosphate buffered saline (DPBS) using the top-down approach (Laursen and Belknap, 1986). Seven days post cell implant (Day 1), animals were randomized and sorted into five groups (n=10/group).
Test compounds were given at a dose volume of 10 mL/kg, and vehicles were matched for each group to control for dosing stress, i.e. all groups received twice daily (BID) dose administration by oral gavage (PO) at the relevant dose volumes and schedule shown in Table 9. Tumor growth was monitored by measuring luciferase activity twice per week. Total flux/mouse can vary by an order of magnitude on day 1 of study start (start of dosing). The total flux was normalized per mouse by assigning the first measurement of flux on day 2 as 100%. Body weight loss as an indicator of tumor progression was determined daily during the dosing interval and then as needed (at least once weekly). Survival was evaluated through day 90 (30 days post-dosing cessation).

BCRP [11] = settings: reported by Mittapalli et al.; cited from earlier work

T1 sequence (P08183 whole entry, species assumed): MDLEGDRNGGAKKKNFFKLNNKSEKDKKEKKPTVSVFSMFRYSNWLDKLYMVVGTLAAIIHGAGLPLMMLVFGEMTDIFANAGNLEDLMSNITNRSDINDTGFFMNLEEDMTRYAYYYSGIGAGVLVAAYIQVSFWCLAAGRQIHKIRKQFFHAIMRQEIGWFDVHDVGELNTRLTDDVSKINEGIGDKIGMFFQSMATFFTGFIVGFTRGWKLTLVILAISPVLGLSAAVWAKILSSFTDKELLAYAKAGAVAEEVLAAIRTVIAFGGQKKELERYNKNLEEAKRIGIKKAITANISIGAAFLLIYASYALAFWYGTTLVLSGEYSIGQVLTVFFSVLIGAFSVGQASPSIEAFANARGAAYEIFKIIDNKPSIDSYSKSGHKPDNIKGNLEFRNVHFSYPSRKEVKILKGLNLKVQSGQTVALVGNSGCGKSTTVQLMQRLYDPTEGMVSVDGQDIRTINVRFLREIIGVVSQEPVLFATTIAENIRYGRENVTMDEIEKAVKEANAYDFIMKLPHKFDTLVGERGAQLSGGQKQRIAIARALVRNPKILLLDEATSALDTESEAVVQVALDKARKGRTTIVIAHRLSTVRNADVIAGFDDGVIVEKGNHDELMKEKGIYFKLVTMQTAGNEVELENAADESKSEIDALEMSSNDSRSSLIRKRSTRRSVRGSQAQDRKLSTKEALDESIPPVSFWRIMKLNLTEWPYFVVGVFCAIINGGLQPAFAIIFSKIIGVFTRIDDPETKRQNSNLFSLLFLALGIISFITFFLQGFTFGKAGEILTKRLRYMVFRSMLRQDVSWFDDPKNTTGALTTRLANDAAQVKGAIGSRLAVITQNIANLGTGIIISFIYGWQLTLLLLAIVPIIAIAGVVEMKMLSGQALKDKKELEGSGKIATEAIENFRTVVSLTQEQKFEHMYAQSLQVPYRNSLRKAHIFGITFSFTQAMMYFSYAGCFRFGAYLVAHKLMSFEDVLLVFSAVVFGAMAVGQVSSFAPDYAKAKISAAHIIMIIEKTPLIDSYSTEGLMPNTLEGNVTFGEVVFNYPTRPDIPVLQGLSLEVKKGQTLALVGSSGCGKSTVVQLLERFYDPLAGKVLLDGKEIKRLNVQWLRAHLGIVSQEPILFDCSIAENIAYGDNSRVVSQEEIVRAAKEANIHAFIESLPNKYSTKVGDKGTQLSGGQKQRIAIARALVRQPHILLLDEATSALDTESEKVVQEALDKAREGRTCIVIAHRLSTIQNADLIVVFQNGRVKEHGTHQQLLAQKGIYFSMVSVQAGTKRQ
T2 sequence (Q9UNQ0 whole entry, species assumed): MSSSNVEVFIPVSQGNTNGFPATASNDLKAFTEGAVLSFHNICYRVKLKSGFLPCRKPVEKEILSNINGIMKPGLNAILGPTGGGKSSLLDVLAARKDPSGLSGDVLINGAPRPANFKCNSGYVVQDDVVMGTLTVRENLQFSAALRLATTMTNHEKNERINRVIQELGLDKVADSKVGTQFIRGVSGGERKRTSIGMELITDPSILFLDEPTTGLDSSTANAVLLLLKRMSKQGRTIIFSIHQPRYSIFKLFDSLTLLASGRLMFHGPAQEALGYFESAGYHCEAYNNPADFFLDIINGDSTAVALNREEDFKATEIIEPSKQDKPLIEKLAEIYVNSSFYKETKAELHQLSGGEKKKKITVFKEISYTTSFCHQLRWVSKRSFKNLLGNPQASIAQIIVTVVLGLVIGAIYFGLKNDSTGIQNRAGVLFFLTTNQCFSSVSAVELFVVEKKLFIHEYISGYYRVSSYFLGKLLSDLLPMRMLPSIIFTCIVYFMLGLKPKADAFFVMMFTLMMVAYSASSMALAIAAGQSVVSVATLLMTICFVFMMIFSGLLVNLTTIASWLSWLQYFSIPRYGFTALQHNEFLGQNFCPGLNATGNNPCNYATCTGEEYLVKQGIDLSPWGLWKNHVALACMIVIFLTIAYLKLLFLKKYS

Compound | IC50 [4] [nM] | BCRP efflux ratio (BCRP [5]) | MDR1 efflux ratio (P-gp (MDR1) [6]) | Permeability (*10^−6 cm/s) [7] | other results
N-(3-((3,5-dimethyl-4- oxo-3,4- dihydroquinazolin-6- yl)amino)-2-fluoro-5- methylphenyl)propane- 1-sulfonamide [Example 46] | 148 |  |  |  | MDR1 efflux ratio (P-gp (MDR1) [1]): 1.43; BCRP efflux ratio (BCRP [2]): 1.48; Permeability (*10^−6 cm/s) ([3]; 2 h, 1 μM): 30.74 *10^−6 cm/s
N-(2-chloro-3-((3,5- dimethyl-4-oxo-3,4- dihydroquinazolin-6- yl)amino)-5- fluorophenyl)-3- fluoropropane-1- sulfonamide [Example 44] | 6.05 | 2.84 | 1.05 | 24.2 *10^−6 cm/s | 
N-(2-chloro-3-((3,5- dimethyl-4-oxo-3,4- dihydroquinazolin-6- yl)amino)-4- fluorophenyl)-2- methylpropane-1- sulfonamide [Example 51] | 63.4 | 1.28 | 1.64 | 27.16 *10^−6 cm/s | 
N-(2-chloro-3-((3,5- dimethyl-4-oxo-3,4- dihydroquinazolin-6- yl)amino)-4- fluorophenyl) ethanesulfonamide [Example 52] | 226 | 1.28 | 1.76 | 28.91 *10^−6 cm/s | 
N-(2-chloro-3-((3,5- dimethyl-4-oxo-3,4- dihydroquinazolin-6- yl)amino)-4- fluorophenyl) benzenesulfonamide [Example 49] | 3.95 | 0.97 | 1.24 | 30.68 *10^−6 cm/s | 
CCCS(=O)(=O)Nc1ncc(F)c(Oc2ccc3ncn(C)c(=O)c3c2C)c1Cl [Example 63, N-(3-chloro-4-((3,5-dimethyl-4-oxo-3,4-dihydroquinazolin-6-yl)oxy)-5-fluoropyridin-2-yl)propane-1-sulfonamide] | 2.8 |  |  |  | efflux ratio at 2 h, 1 μM (BCRP [5]): 7.7; efflux ratio at 2 h, 1 μM (P-gp (MDR1) [6]): 1.3; Papp at 2 h, 1 μM [8]: 26.1 ×10⁻⁶ cm/s; Kp,uu (unbound brain-to-unbound plasma ratio) [9]: 0.34 to 0.4; IC50 (GST-tagged B-Raf(V600K)): 2.4 nM
N-(2-chloro-3-((3,5- dimethyl-4-oxo-3,4- dihydroquinazolin-6- yl)amino)-4- fluorophenyl)-1- cyclopropyl- methanesulfonamide [Example 50] | 66.1 | 1.13 | 1.54 | 21.88 *10^−6 cm/s | 
Cc1c(Nc2c(F)ccc(NS(=O)(=O)CCCF)c2Cl)ccc2ncn(C)c(=O)c12 [Example 82, N-(2-chloro-3-((3,5-dimethyl-4-oxo-3,4-dihydroquinazolin-6-yl)amino)-4-fluorophenyl)-3-fluoropropane-1-sulfonamide] |  |  |  |  | Tumor growth (total bioluminescence, luciferase activity) [10]: significant effect on tumor growth
CCCS(=O)(=O)Nc1ccc(F)c(Oc2ccc3ncn(C)c(=O)c3c2C)c1Cl [Example 55, N-{2-chloro-3-[(3,5-dimethyl-4-oxo-3,4-dihydroquinazolin-6-yl)oxy]-4-fluorophenyl}propane-1-sulfonamide] | 5.4 |  |  |  | efflux ratio at 2 h, 1 μM (BCRP [5]): 0.83; efflux ratio at 2 h, 1 μM (P-gp (MDR1) [6]): 1.1; Papp at 2 h, 1 μM [8]: 23.8 ×10⁻⁶ cm/s; Kp,uu (unbound brain-to-unbound plasma ratio) [9]: 0.46 to 0.51; IC50 (GST-tagged B-Raf(V600K)): 3.1 nM
N-(4-((3,5-dimethyl-4- oxo-3,4- dihydroquinazolin-6- yl)amino)-3,5- difluoropyridin-2- yl)ethanesulfonamide [Example 43] | 260 | 26.02 | 5.24 | 8.75 *10^−6 cm/s | 
N-(3-chloro-4-((3,5- dimethyl-4-oxo-3,4- dihydroquinazolin-6- yl)amino)-5- fluoropyridin-2-yl)-1- cyclopropyl- methanesulfonamide [Example 47] | 41.7 | 7.93 | 1.84 | 25.7 *10^−6 cm/s | 
CCN(C)S(=O)(=O)Nc1ccc(F)c(Nc2ccc3ncn(C)c(=O)c3c2C)c1Cl [Example 54, N-(2-chloro-3-((3,5-dimethyl-4-oxo-3,4-dihydroquinazolin-6-yl)amino)-4-fluorophenyl)-N-ethyl-N-methylamino-1-sulfonamide] |  |  |  |  | Permeability (*10^−6 cm/s) [3]: 35.81 *10^−6 cm/s
N-(3-chloro-4-((3,5- dimethyl-4-oxo-3,4- dihydroquinazolin-6- yl)amino)-5- fluoropyridin-2- yl)ethanesulfonamide [Example 45] | 137 | 11.29 | 2.47 | 16.56 *10^−6 cm/s | 
CC(C)(C)c1nc(-c2cccc(NS(=O)(=O)c3c(F)cccc3F)c2F)c(-c2ccnc(N)n2)s1 [dabrafenib] |  |  |  |  | BCRP efflux ratio (BCRP [11]): 21.0
N-(2-cyano-3-((3,5- dimethyl-4-oxo-3,4- dihydroquinazolin-6- yl)amino)phenyl) propane-1-sulfonamide [Example 53] | 9.4 |  |  |  | MDR1 efflux ratio (P-gp (MDR1) [1]): 2.6; BCRP efflux ratio (BCRP [2]): 22.97; Permeability (*10^−6 cm/s) ([3]; 2 h, 1 μM): 27.13 *10^−6 cm/s
Cc1c(Nc2c(F)cnc(NS(=O)(=O)CC3CC3)c2F)ccc2ncn(C)c(=O)c12 [Example 42, 1-cyclopropyl-N-(4-((3,5-dimethyl-4-oxo-3,4-dihydroquinazolin-6-yl)amino)-3,5-difluoropyridin-2-yl) methanesulfonamide] | 60.3 | 23.73 | 5.26 | 18.35 *10^−6 cm/s | 
CCCS(=O)(=O)Nc1cc(Cl)cc(Nc2ccc3ncn(C)c(=O)c3c2C)c1Cl [Example 48, N-(2,5-dichloro-3-((3,5-dimethyl-4-oxo-3,4-dihydroquinazoli-6-yl)amino)phenyl) propane-1-sulfonamide] |  |  |  |  | Permeability (*10^−6 cm/s) [3]: 25.83 *10^−6 cm/s
